These results are taken from publication PMC5207512, “Inhibition of Helicobacter pylori and Its Associated Urease by Palmatine: Investigation on the Potential Mechanism” (PLoS ONE, 2017).

For one test, the system named is H. pylori ATCC 43504. Briefly: MIC by agar dilution method. It is filed as cell-based. The settings on record: Helicobacter pylori. On the procedure:
(§1) A total of four H. pylori strains were studied, including three reference strains ATCC 43504, NCTC 26695 and SS1 gifted from Professor Richard Ferrero, Monash University, Australia, and one clinical isolate ICDC 111001 obtained from Professor Zhang Jianzhong, Chinese Center of Disease Control and Prevention. […] The MICs of Pal against the four H. pylori strains were evaluated by using agar dilution method. […] H. pylori strains were harvested and resuspended in PBS (1.0–2.0 McFarland were defined based on the strain properties). […] After 72 h, the MIC values were determined as the lowest concentration at which there was no strain growth judged by visual examination. Metronidazole was used as the positive control. The experiments were evaluated under two different pH (7.4 and 5.3) conditions and repeated twice.

In test [1] the test system is H. pylori ICDC 111001 (clinical isolate). In words: MIC by agar dilution method. The test is classed as cell-based. The settings on record: Helicobacter pylori. Here is the method:
as §1
On the technique in general: In agar dilution the substance is mixed into plates at graded concentrations.

A further test deals with H. pylori NCTC 26695. In words: MIC by agar dilution method. The note with it: Helicobacter pylori. It is filed as cell-based. Here is the method:
as §1

The next test deals with H. pylori SS1. Briefly: MIC by agar dilution method. The test is classed as cell-based. The settings on record: Helicobacter pylori. Here is the method:
as §1

On the set-up of test [2]: method as in PMID 24795799. The note with it: cited from earlier work.

As to `COc1cc2c(cc1OC)-c1cc3ccc(OC)c(OC)c3c[n+]1CC2` [Pal, Palmatine], the MIC in the test with H. pylori ATCC 43504 (ATCC43504, pH 5.3, 72 h) was 75 µg/mL; in the test with H. pylori ATCC 43504 (ATCC43504, pH 7.4, 72 h), 100 µg/mL; in test [1] (pH 5.3, 72 h), 75 µg/mL; in test [1] (pH 7.4, 72 h), 100 µg/mL; against H. pylori NCTC 26695 (NCTC26695, pH 5.3, 72 h) it was 100 µg/mL; in the test with H. pylori NCTC 26695 (NCTC26695, pH 7.4, 72 h), 200 µg/mL. Besides, the MIC in the test on H. pylori SS1 (pH 5.3, 72 h) was 75 µg/mL; against H. pylori SS1 (pH 7.4, 72 h), 100 µg/mL. The anti-ulcerogenic activity result in test [2] was “better than that of the C. chinensis extract and its active principle berberine”.

The MIC is the lowest concentration that inhibits growth of the organism. Low values mean greater potency, high ones weaker potency.
